Data from patent US8227620B2, “Pharmaceutical compounds” (Neuroscienze Pharmaness S.C. A.R.L., priority 2004, dated 2012).

Key:
CB2 receptors = biological target: T1, CB2 receptors (Rattus norvegicus, UniProt Q9QZN9); assay: Radioreceptor binding, [3H]-CP-55,940 displacement, rat spleen membranes; settings: 1 nM [3H]-CP55,940
T1 construct: the brain in toto (cerebellum excluded) and the spleen were rapidely dissected; from tissue; host or cells: rat spleen membranes
T1 sequence (Q9QZN9 1-360): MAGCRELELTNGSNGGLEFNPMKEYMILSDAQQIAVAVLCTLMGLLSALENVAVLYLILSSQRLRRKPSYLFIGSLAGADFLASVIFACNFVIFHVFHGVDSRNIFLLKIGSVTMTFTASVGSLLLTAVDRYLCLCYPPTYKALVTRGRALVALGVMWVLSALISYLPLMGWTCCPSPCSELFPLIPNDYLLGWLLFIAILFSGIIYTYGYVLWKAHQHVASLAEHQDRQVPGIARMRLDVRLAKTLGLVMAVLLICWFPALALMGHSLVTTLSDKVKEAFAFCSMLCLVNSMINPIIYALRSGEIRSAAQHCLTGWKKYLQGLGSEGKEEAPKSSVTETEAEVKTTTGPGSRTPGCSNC
Description: (§1) The receptorial binding technique allows indeed to establish if and with what affinity and specificity a determined compound binds itself to a particular receptor. To evaluate the affinity of a determined compound towards a particular receptor, a particular preparation of the tissue wherein the receptors are present is used and the tested compound is made to compete with another compound, treated so as to make it radioactive and of which the affinity for the receptor is known. […] The reading of the radioactivity present in the receptor-compound complex allows furthermore to precisely calculate the compound amount bound to the receptor. By this method it is therefore possible to rapidely identify the affinity of a new compound towards a specific receptor and thus to make predictions on its pharmacological activity. By repeating the same experimental scheme it is possible to evaluate the affinity of the compound towards other kinds of receptors and thus establish the specificity degree.
(§2) Food and water were available ad libitum.
(§3) The animals were sacrificed by cervical dislocation, the brain in toto (cerebellum excluded) and the spleen were rapidely dissected and maintained in ice.
(§4) The tissue was homogenized in 15 volumes (weight/volume) of TME buffer (50 mM Tris, 1 mM EDTA e 3 mM MgCl2, pH 7.4) by an Ultra-Turrax and centrifuged for 10 minutes at 1086×g in a centrifuge cooled at 4° C. The resulting supernatant was centrifuged at 45,000×g for 30 min at 4° C. by using a Beckman SW41 rotor and the final pellet was resuspended in 50 volumes of TME.
(§5) The obtained membranes (50-80 μg of proteins) were incubated in the presence of 1 nM di [^3H]-CP55,940 for 1 h at 30° C. in a final volume of 0.5 ml of TME buffer containing 5 mg/ml of bovine serum albumin (BSA). The non specific binding was measured in the presence of CP55,940 at the 1 μM concentration. […]
(§6) The radioactivity present in the filters was measured by a scintillator spectrophotometer (Tricarb 2100, Packard, Meridien, USA). […]

CB1 receptors [1] = biological target: T2, CB1 receptors (Rattus norvegicus, UniProt P20272); assay: Hypothermia test in vivo, compound alone (rectal temperature); set-up: from tissue; host or cells: whole animal (rat), central CB1 receptors of the hypothalamus; settings: i.p., doses 0.1, 0.5, 1.0, 3.0, 6.0 mg/kg, versus physiological solution (38° C.)
T2 sequence (P20272 whole entry): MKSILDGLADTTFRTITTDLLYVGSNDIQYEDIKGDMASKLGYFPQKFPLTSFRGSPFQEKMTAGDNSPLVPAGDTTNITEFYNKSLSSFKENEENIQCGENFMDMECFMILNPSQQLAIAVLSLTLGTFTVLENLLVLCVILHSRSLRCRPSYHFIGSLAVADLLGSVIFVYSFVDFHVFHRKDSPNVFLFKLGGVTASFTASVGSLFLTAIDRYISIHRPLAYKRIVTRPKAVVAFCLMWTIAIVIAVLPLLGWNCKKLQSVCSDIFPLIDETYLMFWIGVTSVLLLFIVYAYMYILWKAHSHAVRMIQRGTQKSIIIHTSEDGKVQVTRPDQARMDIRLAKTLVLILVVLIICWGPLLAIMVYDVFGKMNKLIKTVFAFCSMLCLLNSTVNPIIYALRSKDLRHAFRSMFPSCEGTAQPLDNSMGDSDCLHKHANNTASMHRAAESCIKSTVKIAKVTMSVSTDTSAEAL
Protocol: The test was carried out with the compound of the Example 3.1c. Aqueous samples were used wherein the compound of the Example 3.1c was dispersed in water with three drops of Tween 80. Following the above procedure, treatments were carried out with doses (mg compound/kg of body weight) respectively of 0.1; 0.5; 1.0; 3.0; 6.0.

CB1 receptors [2] = biological target: T2, CB1 receptors; assay: Antagonism of WIN 55,212-2 induced hypothermia in vivo; settings: for capability to pass the hemato-encephalic barrier: concluded from the hypothermia test; for antagonism of the body temperature reduction induced by WIN 55,212-2: i.p., compound 30 minutes before WIN 55,212-2 (3 mg/kg)
Protocol: The rectal temperature in the rat was determined by an electronic thermometer inserted at a 2 mm depth. The measurements were carried out on rats acclimated for one hour. The rectal temperature was determined before and after (from 30 to 120 minutes) the i.p. administration of the compound to be tested.
Each test was repeated on ten animals; the reported results are the average of the results obtained with the ten animals.

CB1 receptors [3] = biological target: T2, CB1 receptors; assay: Radioreceptor binding, [3H]-CP-55,940 displacement, rat brain membranes; set-up: from tissue; host or cells: whole animal (rat), central CB1 receptors of the hypothalamus; settings: 1 nM [3H]-CP55,940
Description: as §1, §2, §3, §4, §5, §6

[4] = WIN 55,212-2 (3 mg/kg) + compound 0.1 mg/kg, 0 min from WIN administration
[5] = WIN 55,212-2 (3 mg/kg) + compound 0.1 mg/kg, 15 min
[6] = WIN 55,212-2 (3 mg/kg) + compound 0.1 mg/kg, 30 min
[7] = WIN 55,212-2 (3 mg/kg) + compound 0.1 mg/kg, 60 min
[8] = WIN 55,212-2 (3 mg/kg) + compound 0.1 mg/kg, 90 min
[9] = WIN 55,212-2 (3 mg/kg) + compound 0.1 mg/kg, 120 min
[10] = WIN 55,212-2 (3 mg/kg) + compound 0.5 mg/kg, 0 min from WIN administration
[11] = WIN 55,212-2 (3 mg/kg) + compound 0.5 mg/kg, 15 min
[12] = WIN 55,212-2 (3 mg/kg) + compound 0.5 mg/kg, 30 min
[13] = WIN 55,212-2 (3 mg/kg) + compound 0.5 mg/kg, 60 min
[14] = WIN 55,212-2 (3 mg/kg) + compound 0.5 mg/kg, 90 min
[15] = WIN 55,212-2 (3 mg/kg) + compound 0.5 mg/kg, 120 min
[16] = WIN 55,212-2 (3 mg/kg) + compound 1.0 mg/kg, 0 min from WIN administration
[17] = WIN 55,212-2 (3 mg/kg) + compound 1.0 mg/kg, 15 min
[18] = WIN 55,212-2 (3 mg/kg) + compound 1.0 mg/kg, 30 min
[19] = WIN 55,212-2 (3 mg/kg) + compound 1.0 mg/kg, 60 min
[20] = WIN 55,212-2 (3 mg/kg) + compound 1.0 mg/kg, 90 min
[21] = WIN 55,212-2 (3 mg/kg) + compound 1.0 mg/kg, 120 min
[22] = WIN 55,212-2 (3 mg/kg) + compound 3.0 mg/kg, 0 min from WIN administration
[23] = WIN 55,212-2 (3 mg/kg) + compound 3.0 mg/kg, 15 min
[24] = WIN 55,212-2 (3 mg/kg) + compound 3.0 mg/kg, 30 min
[25] = WIN 55,212-2 (3 mg/kg) + compound 3.0 mg/kg, 60 min
[26] = WIN 55,212-2 (3 mg/kg) + compound 3.0 mg/kg, 90 min
[27] = WIN 55,212-2 (3 mg/kg) + compound 3.0 mg/kg, 120 min
[28] = WIN 55,212-2 (3 mg/kg) + compound 6.0 mg/kg, 0 min from WIN administration
[29] = WIN 55,212-2 (3 mg/kg) + compound 6.0 mg/kg, 15 min
[30] = WIN 55,212-2 (3 mg/kg) + compound 6.0 mg/kg, 30 min
[31] = WIN 55,212-2 (3 mg/kg) + compound 6.0 mg/kg, 60 min
[32] = WIN 55,212-2 (3 mg/kg) + compound 6.0 mg/kg, 90 min
[33] = WIN 55,212-2 (3 mg/kg) + compound 6.0 mg/kg, 120 min

Row | Molecule | Ki (CB2 receptors) | effect of the compound as such on body temperature (CB1 receptors [1]) | Body temperature (° C.) (CB1 receptors [2]; [4]) | Body temperature (° C.) (CB1 receptors [2]; [5]) | Body temperature (° C.) (CB1 receptors [2]; [6]) | Body temperature (° C.) (CB1 receptors [2]; [7]) | Body temperature (° C.) (CB1 receptors [2]; [8]) | Body temperature (° C.) (CB1 receptors [2]; [9]) | Body temperature (° C.) (CB1 receptors [2]; [10]) | Body temperature (° C.) (CB1 receptors [2]; [11]) | Body temperature (° C.) (CB1 receptors [2]; [12]) | Body temperature (° C.) (CB1 receptors [2]; [13]) | Body temperature (° C.) (CB1 receptors [2]; [14]) | Body temperature (° C.) (CB1 receptors [2]; [15]) | Body temperature (° C.) (CB1 receptors [2]; [16]) | Body temperature (° C.) (CB1 receptors [2]; [17]) | Body temperature (° C.) (CB1 receptors [2]; [18]) | Body temperature (° C.) (CB1 receptors [2]; [19]) | Body temperature (° C.) (CB1 receptors [2]; [20]) | Body temperature (° C.) (CB1 receptors [2]; [21]) | further results
1 | Cc1c(C(=O)NN2CCCCC2)nn(-c2ccc(Cl)cc2Cl)c1-c1ccc(Cl)s1 [Example 3.1b, N-piperidinyl-5-(5-Chloro-thiophen-2-yl)-1-(2′,4′-dichloro-phenyl)-4-methyl-1H-pyrazol-3-carboxamide] | 476 ± 3 nM | does not cause as such any effect on the body temperature | 38.5 °C | 35.1 °C | 33.8 °C | 35.3 °C | 36.9 °C | 37.3 °C | 38.1 °C | 35.8 °C | 34.5 °C | 35.7 °C | 36.7 °C | 37.3 °C | 38.3 °C | 36.1 °C | 35.7 °C | 36.8 °C | 37.8 °C | 37.9 °C | Body temperature (° C.) (CB1 receptors [2]; [22]): 38.4 °C; Body temperature (° C.) (CB1 receptors [2]; [23]): 36.1 °C; Body temperature (° C.) (CB1 receptors [2]; [24]): 35.7 °C; Body temperature (° C.) (CB1 receptors [2]; [25]): 36.8 °C; Body temperature (° C.) (CB1 receptors [2]; [26]): 37.8 °C; Body temperature (° C.) (CB1 receptors [2]; [27]): 37.9 °C; Body temperature (° C.) (CB1 receptors [2]; [28]): 38.6 °C; Body temperature (° C.) (CB1 receptors [2]; [29]): 37.7 °C; Body temperature (° C.) (CB1 receptors [2]; [30]): 37.9 °C; Body temperature (° C.) (CB1 receptors [2]; [31]): 37.9 °C; Body temperature (° C.) (CB1 receptors [2]; [32]): 38.2 °C; Body temperature (° C.) (CB1 receptors [2]; [33]): 37.9 °C; capability to pass the hemato-encephalic barrier (CB1 receptors [2]): capable to pass the hemato-encephalic barrier; CB1 antagonist behaviour in vivo (CB1 receptors [2]; hypothermia test): shows a CB1 antagonist behaviour; antagonism of the body temperature reduction induced by WIN 55,212-2 (CB1 receptors [2]): able to antagonize the effect of WIN 55,212-2; Ki (CB1 receptors [3]): 35 ± 2.5 nM
2 | N-pyrrolidinyl-5-(5-Chloro-thiophen-2-yl)-1-(2,4′-dichloro-phenyl)-4-methyl-1H-pyrazol-3-carboxamide [Example 3.1d] | 699 ± 21 nM | does not cause as such any effect on the body temperature | 38.1 °C | 35.3 °C | 33.8 °C | 35.6 °C | 36.5 °C | 37.2 °C | 38.1 °C | 35.7 °C | 34.4 °C | 35.0 °C | 36.3 °C | 37.2 °C | 37.9 °C | 36.5 °C | 34.7 °C | 35.8 °C | 36.7 °C | 37.1 °C | Body temperature (° C.) (CB1 receptors [2]; [22]): 38.4 °C; Body temperature (° C.) (CB1 receptors [2]; [23]): 37.0 °C; Body temperature (° C.) (CB1 receptors [2]; [24]): 36.8 °C; Body temperature (° C.) (CB1 receptors [2]; [25]): 37.3 °C; Body temperature (° C.) (CB1 receptors [2]; [26]): 37.7 °C; Body temperature (° C.) (CB1 receptors [2]; [27]): 37.6 °C; Body temperature (° C.) (CB1 receptors [2]; [28]): 37.8 °C; Body temperature (° C.) (CB1 receptors [2]; [29]): 36.9 °C; Body temperature (° C.) (CB1 receptors [2]; [30]): 36.9 °C; Body temperature (° C.) (CB1 receptors [2]; [31]): 37.2 °C; Body temperature (° C.) (CB1 receptors [2]; [32]): 37.8 °C; Body temperature (° C.) (CB1 receptors [2]; [33]): 37.9 °C; capability to pass the hemato-encephalic barrier (CB1 receptors [2]): able to pass the hemato-encephalic barrier; antagonism of the body temperature reduction induced by WIN 55,212-2 (CB1 receptors [2]): able to antagonize the effect of WIN 55,212-2; Ki (CB1 receptors [3]): 63 ± 7.2 nM
